Here are results for 20 compounds from patent US7098227B2, “Disubstituted thiazolyl carboxanilides and their use as microbicides” (Bayer Cropscience AG, priority 2002, dated 2006).

As a reminder, the logP is a log measure of how a compound divides between an organic and an aqueous phase. Broadly, the chromatographic logP is lipophilicity estimated from chromatographic retention. Read a low chromatographic logP as a more hydrophilic compound. In general, melting point refers to the temperature of the solid-liquid transition.

For data set [1], the system named is Venturia inaequalis. Description: Venturia Test (Apple)/Protective. Particulars: 240 h, application rate 10 g/ha, protective spray, evaluation 10 days after inoculation, 100% = no infection, read-out: % Efficacy. The format is in vivo. On the procedure:
Venturia Test (Apple)/Protective [table] To produce a suitable preparation of active compound, 1 part by weight of active compound is mixed with the stated amounts of solvent and the emulsifier, and the concentrate is diluted with water to the desired concentration. To test for protective activity, young plants are sprayed with the preparation of active compound at the stated application rate. After the spray coating has dried on, the plants are inoculated with an aqueous conidia suspension of the apple scab pathogen Venturia inaequalis and then remain in an incubation cabin at about 20° C. and 100% relative atmospheric humidity for 1 day. The plants are then placed in a greenhouse at about 21° C. and a relative atmospheric humidity of about 90%. Evaluation is carried out 10 days after the inoculation. 0% means an efficacy which corresponds to that of the control, whereas an efficacy of 100% means that no infection is observed.

Data set [2] concerns Sphaerotheca fuliginea. Description: Sphaerotheca Test (Cucumber)/Protective. The format is in vivo. Particulars: Podosphaera fuliginea, 168 h, application rate 10 g/ha, protective spray, evaluation 7 days after inoculation, 100% = no infection, read-out: % Efficacy. On the procedure: Sphaerotheca Test (Cucumber)/Protective [table] To produce a suitable preparation of active compound, 1 part by weight of active compound is mixed with the stated amounts of solvent and emulsifier, and the concentrate is diluted with water to the desired concentration. To test for protective effectivity, the young plants are sprayed with the preparation of active compound at the stated application rate. After the spray coating has dried on, the plants are inoculated with an aqueous spore suspension of Sphaerotheca fuliginea. The plants are then placed in a greenhouse at about 23° C. and a relative atmospheric humidity of about 70%. Evaluation is carried out 7 days after the inoculation. 0% means an efficacy which corresponds to that of the control, whereas an efficacy of 100% means that no infection is observed.

A short description of data set [3]: logP determination by HPLC on reverse-phase column (C 18), EEC Directive 79/831 Annex V.A8. The format is physicochemical. Particulars: 43° C.; for chromatographic logP: reverse-phase HPLC column (C 18), pH 2.3, pH 2.3, 0.1% aqueous phosphoric acid/acetonitrile gradient. On the procedure:
The logP values given in the tables and Preparation Examples above are determined in accordance with EEC Directive 79/831 Annex V.A8 by HPLC (High Performance Liquid Chromatography) on a reverse-phase column (C 18). Temperature: 43° C. The determination is carried out in the acidic range at pH 2.3 using the mobile phases 0.1% aqueous phosphoric acid and acetonitrile; linear gradient from 10% acetonitrile to 90% acetonitrile. Calibration is carried out using unbranched alkan-2-ones (of 3 to 16 carbon atoms), with known logP values (determination of the logP values by the retention times using linear interpolation between two successive […]).

In data set [4] the test system is Botrytis cinerea. Description: Botrytis Test (Bean)/Protective. The format is in vivo. Particulars: 48 h, application rate 100 g/ha, protective spray, evaluation 2 days after inoculation, 100% = no infection, read-out: % Efficacy. On the procedure: Botrytis Test (Bean)/Protective [table] To produce a suitable preparation of active compound, 1 part by weight of active compound is mixed with the stated amounts of solvent and emulsifier, and the concentrate is diluted with water to the desired concentration. To test for protective activity, young plants are sprayed with the preparation of active compound at the stated application rate. After the spray coating has dried on, 2 small pieces of agar colonised by Botrytis cinerea are placed onto each leaf. The inoculated plants are then placed in a dark chamber at about 20° C. and 100% relative atmospheric humidity. 2 days after the inoculation, the size of the infected areas on the leaves is evaluated. 0% means an efficacy which corresponds to that of the control, whereas an efficacy of 100% means that no infection is observed.

The test system of data set [5] is Rhizoctonia solani. Description: In vitro Test for the ED50 Determination in Microorganisms. The format is cell-based. Particulars: 50% inhibition of fungal growth, tested at 0.1, 1, 10 and 100 ppm, 22° C., 3–5 days, photometric 620 nm. On the procedure:
(§1) In vitro Test for the ED50 Determination in Microorganisms A methanolic solution of the active compound to be tested, mixed with the emulsifier PS16, is pipetted into the wells of microtitre plates. After the solvent has evaporated, 200 μl of potato/dextrose medium are added to each well. Beforehand, a suitable concentration of spores or mycelium of the fungus to be tested was added to the medium. The resulting concentrations of the active compound are 0.1, 1, 10 and 100 ppm. The resulting concentration of the emulsifier is 300 ppm. The plates are then incubated on a shaker at a temperature of 22° C. for 3–5 days, until sufficient growth can be observed in the untreated control. Evaluation is carried out photometrically at a wavelength of 620 nm. The dose of active compound which causes a 50% inhibition of fungal growths compared to the untreated control (ED50), is calculated from the data measured at different concentrations.

In data set [6] the test system is Septoria tritici. The data set is described as above. The format is cell-based. Particulars: 50% inhibition of fungal growth, tested at 0.1, 1, 10 and 100 ppm, 22° C., 3–5 days, photometric 620 nm. On the procedure: as §1

As for `Cc1nc(C(F)(F)F)c(C(=O)Nc2ccccc2-c2ccc(F)c(Cl)c2)s1` [Example 1, N-(3′-chloro-4′-fluoro-1,1′-biphenyl-2-yl)-2-methyl-4-(trifluoromethyl)-1,3-thiazol-5-carboxamide], the pest or weed control at 10 g/ha in data set [1] is 100%; in data set [2], 83%. This compound also had a logP in data set [3] (pH 2.3, 0.1% aqueous phosphoric acid/acetonitrile gradient, listed as 2) of 3.60. For the same compound, the chromatographic logP in data set [3] was determined as 3.58. Besides, the pest or weed control at 100 g/ha in data set [4] is 82%.

Consider `Cc1nc(C(F)(F)F)c(C(=O)Nc2ccccc2-c2ccc(F)cc2)s1` [Example 3.37, reference compound], for which the figures for the pest or weed control at 10 g/ha in data set [1] and in data set [2] were 32% and 20%, respectively. The ED50 in data set [5] is listed as above 100 ppm; in data set [6], 84.24 ppm. Further, the pest or weed control at 100 g/ha in data set [4] turned out to be 50%.

As for `Cc1nc(C(F)(F)F)c(C(=O)Nc2ccccc2-c2ccc(F)c(F)c2)s1` [Example 4], the melting point lay in the range of 120 to 122 °C. For the same compound, in data set [1], the pest or weed control at 10 g/ha was found to be 100%. Further, the pest or weed control at 10 g/ha in data set [2] was 90%. Besides, the chromatographic logP in data set [3] came out at 3.31.

As to `Cc1nc(C(F)(F)F)c(C(=O)Nc2ccccc2-c2cc(F)cc(F)c2)s1` [Example 5], the melting point lay within 133 to 134 °C. For the same compound, in data set [1], the pest or weed control at 10 g/ha was 94%. In data set [3], this compound showed a chromatographic logP of 3.35.

On to `Cc1nc(C(F)(F)F)c(C(=O)Nc2ccccc2-c2ccc(F)cc2F)s1` [Example 6], for which the pest or weed control at 10 g/ha in data set [1] worked out at 99%. The compound further returned a chromatographic logP in data set [3] of 3.21.

With `Cc1nc(C(F)(F)F)c(C(=O)Nc2ccccc2-c2ccc(Cl)c(F)c2)s1` [Example 7], the melting point was in the range of 139 to 141 °C. For the same compound, in data set [1], the pest or weed control at 10 g/ha is 100%. In data set [2], the pest or weed control at 10 g/ha is 95%. The chromatographic logP in data set [3] is 3.61. In addition, in data set [4], the pest or weed control at 100 g/ha was 92%.

As to `Cc1nc(C(F)(F)F)c(C(=O)Nc2ccccc2-c2ccc(F)c(C(F)(F)F)c2)s1` [Example 9], the pest or weed control at 10 g/ha in data set [2] was determined as 90%. This compound yielded a chromatographic logP in data set [3] of 3.76.

For `Cc1nc(C(F)(F)F)c(C(=O)Nc2ccccc2-c2ccc(F)c(C)c2)s1` [Example 10], the pest or weed control at 10 g/ha in data set [1] is 100%; in data set [2], 98%. Besides, the ED50 in data set [5] and in data set [6] was <0.1 <0.1 ppm each time. Besides, the pest or weed control at 100 g/ha in data set [4] was found to be 95%.

Regarding `Cc1nc(C(F)(F)F)c(C(=O)Nc2ccccc2-c2ccc(Cl)c(C(F)(F)F)c2)s1` [Example 11], the pest or weed control at 10 g/ha in data set [1] and in data set [2] was 100% in each case. In addition, the figures for the ED50 in data set [5] and in data set [6] were below 0.1 ppm and 1.42 ppm, respectively. The compound also gave a chromatographic logP in data set [3] of 4.03.

Regarding `Cc1nc(C(F)(F)F)c(C(=O)Nc2ccccc2-c2ccc(C)c(C(F)(F)F)c2)s1` [Example 12], the pest or weed control at 10 g/ha in data set [2] was found to be 100%. In addition, the values for the ED50 in data set [5] and in data set [6] were below 0.1 ppm and 3.16 ppm, respectively. For the same compound, in data set [3], the chromatographic logP amounted to 4.03.

Take `Cc1nc(C(F)(F)F)c(C(=O)Nc2ccccc2-c2ccc(OC(F)(F)F)c(C(F)(F)F)c2)s1` [Example 13]: the pest or weed control at 10 g/ha in data set [2] was 85%. Also, the chromatographic logP in data set [3] amounted to 4.08.

Take `Cc1nc(C(F)(F)F)c(C(=O)Nc2ccccc2-c2cc(Cl)cc(Cl)c2)s1` [Example 14]: the pest or weed control at 10 g/ha in data set [1] is 100%. Moreover, the values for the ED50 in data set [5] and in data set [6] were below 0.1 ppm and 0.32 ppm, respectively. In data set [3], the chromatographic logP was 3.63.

Take `Cc1nc(C(F)(F)F)c(C(=O)Nc2ccccc2-c2ccc(Cl)cc2C)s1` [Example 16]: the ED50 in data set [5] came out at 0.45 ppm; in data set [6] it was 0.89 ppm. The compound further registered a chromatographic logP in data set [3] of 4.23.

Regarding `Cc1nc(C(F)(F)F)c(C(=O)Nc2ccccc2-c2ccc(Cl)cc2Cl)s1` [Example 17], the pest or weed control at 10 g/ha in data set [2] is 90%. Also, the chromatographic logP in data set [3] is 3.86. Besides, in data set [4], the pest or weed control at 100 g/ha turned out to be 87%.

As for `Cc1nc(C(F)(F)F)c(C(=O)Nc2ccccc2-c2ccc(C)c(Cl)c2)s1` [Example 18], the pest or weed control at 10 g/ha in data set [1] worked out at 100%. In addition, the pest or weed control at 100 g/ha in data set [4] worked out at 99%.

For `Cc1nc(C(F)(F)F)c(C(=O)Nc2ccccc2-c2ccc(Cl)cc2F)s1` [Example 19], the pest or weed control at 10 g/ha is 100% in data set [1] and 81% in data set [2]. This compound returned a chromatographic logP in data set [3] of 3.52. Further, the pest or weed control at 100 g/ha in data set [4] is 99%.

For `Nc1ccccc1-c1ccc(F)c(Cl)c1` [Example (III-1), 3′-chloro-4′-fluoro-1,1′-biphenyl-2-amine], in data set [3], the chromatographic logP was determined as 3.01.

With `Cc1nc(C(F)(F)F)c(C(=O)Nc2ccccc2I)s1` [Example (IV-1), N-(2-iodophenyl)-2-methyl-4-(trifluoromethyl)-1,3-thiazol-5-carboxamide], the chromatographic logP in data set [3] was 2.81.

In data set [3], `Cc1nc(C(F)(F)F)c(C(=O)Nc2ccccc2Br)s1` [Example (IV-2), N-(2-bromophenyl)-2-methyl-4-(trifluoromethyl)-1,3-thiazol-5-carboxamide] had a chromatographic logP of 2.79.

Take `Cc1nc(C(F)(F)F)c(C(=O)Nc2ccccc2-c2ccc(Cl)cc2)s1` [reference compound]: the pest or weed control at 10 g/ha in data set [1] stood at 76%; in data set [2] it was 30%. Moreover, the ED50 in data set [5] and in data set [6] was >100>100 ppm in each case. For the same compound, in data set [4], the pest or weed control at 100 g/ha came out at 76%.
